From article PMC7217877, “N-AS-triggered SPMs are direct regulators of microglia in a model of Alzheimer’s disease” (Nature Communications, 2020)
Where “and” joins values, the source holds several entries; their conditions need not be identical. Equal entries are not always repeated. Where two headings read alike, the source gives them in different places.

Columns and labels:
[1] = target: T1, COX2 of WT and APP/PS1 mice (Mus musculus, UniProt Q05769); assay: in vivo COX2 acetylation in microglia and neuron after oral [14C] N-AS (Supplementary Fig 4d)
T1 construct: from tissue; host or cells: microglia and neurons isolated from brain of 9-months-old WT and APP/PS1 mice
T1 sequence (Q05769 18-604): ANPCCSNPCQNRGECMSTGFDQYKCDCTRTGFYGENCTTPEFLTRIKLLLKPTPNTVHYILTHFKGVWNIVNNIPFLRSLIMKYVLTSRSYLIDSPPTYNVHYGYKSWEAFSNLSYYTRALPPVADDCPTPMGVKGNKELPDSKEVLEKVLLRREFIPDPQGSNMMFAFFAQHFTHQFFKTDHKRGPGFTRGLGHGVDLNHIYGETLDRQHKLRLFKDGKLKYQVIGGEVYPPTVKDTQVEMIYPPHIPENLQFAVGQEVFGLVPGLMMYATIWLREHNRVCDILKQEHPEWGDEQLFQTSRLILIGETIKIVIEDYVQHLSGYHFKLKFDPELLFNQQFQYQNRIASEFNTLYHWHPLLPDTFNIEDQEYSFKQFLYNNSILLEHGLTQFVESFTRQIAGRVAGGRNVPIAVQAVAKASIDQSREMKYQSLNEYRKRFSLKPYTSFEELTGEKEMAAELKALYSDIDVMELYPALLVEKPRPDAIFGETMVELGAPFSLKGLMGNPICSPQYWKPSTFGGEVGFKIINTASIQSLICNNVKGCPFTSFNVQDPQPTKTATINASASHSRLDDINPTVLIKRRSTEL
Method: Acetylation assays were performed according to previously described procedures with minor modifications. […] To confirm the N-AS-mediated COX2 acetylation, 10 μg COX2 (WT or mutants) was used incubated with [^14C] N-AS (2 μCi, ARC UK Ltd, ARC-1024) at 37 °C for 2 h. [^14C] aspirin (2 μCi, ARC UK Ltd, ARC-0473) was conducted as the positive control. The reactions were terminated by placing the reaction tubes in ice for 5 min. To evaluate in vivo neuronal and microglial COX2 acetylation, 10 μCi [^14C] N-AS was orally administrated to 9-months-old WT and APP/PS1 mice. After 1 h, neuron and microglia were isolated and sonicated in culture media. To immunoprecipitate acetylated COX2, the sample was incubated with COX2 antibody (Abcam, ab15191) at 4 °C for 24 h and precipitated by adding 50 μl of protein-A sepharose (GE Healthcare). Acetylated COX2 proteins bound to the beads were analyzed using a Tri-Carb 3110TR liquid scintillation counter (Perkin-Elmer).

[2] = single-dose brain PK and brain distribution; assay type: in vivo, C57BL/6 mice; details: mouse; for Kp / MRT / half-life / AUC(0-inf) / AUC(0-t): C57BL/6, brain; for AUC(0-inf): read-out: AUCinf (Brain); for AUC(0-t): read-out: AUClast (Brain)
Method: C57BL/6 mice were administered N-AS (Sigma-Aldrich, 01912) at doses of 1 mg kg^−1 (i.v.) or 10 mg kg^−1 (p.o.). Venous blood samples were collected at 5, 15, and 30 min, and 1, 2, 4, 8, and 24 h postdose. A 30 μl of plasma was separated from whole blood by centrifugation and stored at −80 °C until analysis. Also, brain samples were collected at 1, 2, 4, and 24 h postdose and heart, liver, and kidney samples were collected at 24 h postdose, thoroughly rinsed with physiological saline and weighed. Twenty percentage of tissue homogenates were prepared by homogenizing the tissue samples with four volumes of saline. A 30 μl aliquot of plasma or a 50 μl aliquot of tissue homogenates were deproteinized by addition of 200 μl cold methanol (containing naringenin as internal standard at 20 ng ml^−1) and centrifuged at 15,974×g for 10 min. A 10 μl aliquot of the supernatant was injected into Agilent 6470 LC-MS/MS system. Separation was performed on a Synergy Polar RP column (4 μm particle size, 2.0 mm ×150 mm, Phenomenex) using a mobile phase that consisted of methanol and water (85:15, v/v) with 0.1% formic acid at a flow rate of 0.2 ml min^−1. Quantification was carried out using multiple reaction monitoring (MRM) at m/z 340.3→263.3 for N-AS and m/z 271.1→151.3 for naringenin (internal standard) in negative ionization mode and collision energy of 20 eV. p, and relative oral BA values were calculated as follows: BA% = AUCp.o. normalized by p.o. dose/AUCi.v. normalized by i.v. dose × 100.

[3] = target: T2, COX2 S565A (Homo sapiens, UniProt P35354, S565A); assay: filter binding assay of [14C] N-AS to COX2; details: 0.2 uM, replicates
T2 construct: His (N); made in house
T2 sequence (P35354 18-604 S565A): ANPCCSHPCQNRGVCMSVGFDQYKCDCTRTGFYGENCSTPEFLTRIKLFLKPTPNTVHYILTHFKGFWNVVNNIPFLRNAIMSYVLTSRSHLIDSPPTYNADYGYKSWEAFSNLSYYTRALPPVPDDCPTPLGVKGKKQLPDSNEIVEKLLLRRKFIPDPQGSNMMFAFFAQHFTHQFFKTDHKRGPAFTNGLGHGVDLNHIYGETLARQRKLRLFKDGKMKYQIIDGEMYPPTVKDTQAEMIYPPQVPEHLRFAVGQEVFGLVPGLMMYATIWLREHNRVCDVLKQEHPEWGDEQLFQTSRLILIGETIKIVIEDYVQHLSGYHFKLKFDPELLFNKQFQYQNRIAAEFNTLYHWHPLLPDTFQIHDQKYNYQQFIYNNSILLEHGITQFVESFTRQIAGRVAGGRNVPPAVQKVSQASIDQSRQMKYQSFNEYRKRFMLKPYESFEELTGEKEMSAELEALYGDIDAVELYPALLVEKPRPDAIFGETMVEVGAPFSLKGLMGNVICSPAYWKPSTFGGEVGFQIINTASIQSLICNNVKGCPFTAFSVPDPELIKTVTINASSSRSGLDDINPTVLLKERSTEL

## CCCCCCCCCCCCC/C=C/[C@@H](O)[C@H](CO)NC(C)=O [N-AS, N-((2S,3R,E)-1,3-Dihydroxyoctadec-4-en-2-yl)acetamide]
[1]; Microglia, APP/PS1 mice, relative to WT = 100, listed as [14C] N-AS
  in vivo COX2 acetylation after oral [14C] N-AS (sFig 4d): 223.529 and 255.556 and 247.368 and 238.095 and 191.304 and 233.333
[1]; Microglia, WT mice (set to 100)
  in vivo COX2 acetylation after oral [14C] N-AS (sFig 4d): 100
[1]; Neuron, APP/PS1 mice, relative to WT = 100, listed as [14C] N-AS
  in vivo COX2 acetylation after oral [14C] N-AS (sFig 4d): 104 and 95.8333 and 96.1539 and 114.286 and 112.5
[1]; Neuron, WT mice (set to 100)
  in vivo COX2 acetylation after oral [14C] N-AS (sFig 4d): 100
[1]; oral [14C] N-AS, APP/PS1 vs WT microglia
  [14C] radioreactivity of COX2 from microglia: more avidly bound to and acetylated COX2 of APP/PS1 microglia
[1]; oral [14C] N-AS, APP/PS1 vs WT neurons
  [14C] radioreactivity of COX2 from neurons: no significant differences were observed in neurons
[2]; iv, i.v. 1 mg/kg
  Kp: 2.16
  MRT: 6.94 ± 0.62 h
  half-life: 6.31 ± 0.38 h
  AUC(0-inf): 1440 ± 228 ng·h/mL
  AUC(0-t): 1340 ± 224 ng·h/mL
[2]; po, p.o. 10 mg/kg
  Kp: 3.18
  MRT: 8.64 ± 1.01 h
  half-life: 22 ± 6.07 h
  AUC(0-inf): 1750 ± 362 ng·h/mL
  AUC(0-t): 895 ± 60.5 ng·h/mL
[2]; i.v. 1 mg/kg
  Cmax (Brain): 165.18 ± 18.42 ng/mL
[2]; p.o. 10 mg/kg
  Cmax (Brain): 90.27 ± 2.95 ng/mL
[3]
  binding velocity (Vbinding): 0.187 nM/min and 0.075 nM/min and 0.292 nM/min
